The source of these data is patent US20240299321A1, “METHODS TO SENSITIZE CANCER CELLS AND STANDARDIZED SCREENING ASSAY FOR IMMUNOTHERAPY” (THE TRUSTEES OF INDIANA UNIVERSITY, priority 2020, published 2024).

Test [1] concerns EO771 (Luc+OVA+) tumor organoids. The test is described as follows: Intra-tumor infiltration of T cells in tumor organoids. The class given is cell-based, mouse. The settings on record: 48 h treatment, then co-culture with OT-I T cells. As to the method:
To evaluate intra-tumor infiltration of T cells, EO771 (Luc+OVA+) tumor organoids were treated with indicated drugs for 48 h, and then co-cultured with OT-I T cells. After co-culture for 48 h, the organoids with T cells inside or attached were dissociated by TrypLE Express (Thermo Fisher) into single cells and stained with APC/Cy7-conjugated anti-mouse CD8 (Biolegend) and SYTOX Blue reagent for 15 min. The CD8+ T cell proportions from tumor organoids were analyzed by flow cytometry.

The next test relates to EO771 tumors. Briefly: EO771 orthotopic breast tumor model in immunocompetent C57BL/6 mice. The class given is in vivo. To be noted: 20 mg kg-1 intraperitoneal, 3 times/week for 2 weeks. The method, then:
T cell effector function analysis: We measured cytokine and cytolytic granule production (IFNγ, GZMB and TNFα) of CD8+ T cells from mouse tumor samples and tumor organoid-T cell co-culture. Briefly, CD8+ T cells were placed into the 24-well plate at 1×10^6 cells/well, stimulated with 1 μM ionomycin and 50 ng ml-1 phorbol 12-myristate 13-acetate (PMA) (Sigma-Aldrich) for 4 h, in the presence of 5 μg ml-1 Brefeldin A (BFA), with the purpose to amplify the expression of intracellular cytokines61. The cells were stained with APC/Cy7-conjugated anti-CD8a (Biolegend) for 15 min and then fixed by 4% PFA. After washing, cells were stained with PerCP/Cy7-conjugated anti-GZMB, APC-conjugated anti-IFNγ and PE-conjugated anti-TNFα (Biolegend) for 15 min. In flow cytometric analyses, T cells stained with isotype control antibodies were used as negative controls for gating the cytokine or granule-producing cells. For T cells from tumor organoid-T cell co-culture, tumor organoids were first digested into single cells with TrypLE Express at 37° C. before APC/Cy7-conjugated anti-CD8a staining. In the IFNγ and TNFα secretion assay (Biolegend), T cells were stimulated with ionomycin and PMA without the presence of BFA. The media were collected for ELISA assay.
Immunohistochemistry (IHC) and Immunofluorescence (IF) analysis of tumor organoids: Tumor organoids were gently centrifuged at 100 rcf from organoid culture medium and then embedded in 2% agar. Tumor organoids were fixed in 4% paraformaldehyde solution for overnight at room temperature. The samples were replaced with 70% ethanol and later embedded in paraffin blocks. Paraffin sections were cut at 5 μm thickness, attached on slides, heated at 60° C. for 1 h and then overnight at 37° C. The slides were stained with hematoxylin and eosin (H&E). IHC staining follows the protocol described62. Mouse-specific antibodies for CD8α (Cell Signaling Technology, clone D4W2Z, 1:400 dilution), cleaved caspase3 (Cell Signaling Technology, clone D175, 1:400 dilution) and Ki67 (Cell Signaling Technology, clone D3B5, 1:400 dilution) were used for IHC staining. The DAB peroxidase substrate kit (Vector laboratories Inc.) was used to visualize the antibodies. For IF analysis, the sample slides were blocked 3% BSA for 40 min after hydration. The slides were stained with primary antibodies including EpCAM (Abcam, 1:400 dilution), FITC-conjugated anti-α-SMA (Genetex, 1:400 dilution) and AF594-conjugated anti-CD31 (Biolegend) for 1 h. For EpCAM staining, the slide was further stained with secondary antibody Alexa Fluor 647-conjugated anti-rabbit IgG (Biolegend, 1:200) for 40 min. The fluorescence images were captured under a Leica DM4B microscope.
Animal studies: All animal experiments were performed in accordance with the National Institutes of Health's Animal Use Guidelines and protocols approved by the Animal Care and Use Committee of Indiana University School of Medicine. To examine the tumorigenic potential of tumor organoids, tumor organoids with different sizes (diameter of 30-70, 70-150, and 150-500 μm) were orthotopically injected into fat pad of the 4th mammary gland in female C57BL/6 mice. Each mouse was injected with a total of 2×10^5 tumor cells. 5 mice were used in each group. Tumors were measured in two dimensions using a manual caliper. Tumor volume was calculated using the following formula: V=0.5×length×width×width. Tumor volume was measured every 3 days. Tumors were harvested 22 days after injection. The tumor growth, volume and weight were analyzed. To evaluate the anti-tumor effect of drugs in immunocompetent C57BL/6 mice and immunodeficient nude (NU/J) mice, 2×10^5 EO771 cells were orthotopically injected into fat pad of the 4th mammary gland in female mice. […]

`COc1ccccc1S(=O)(=O)Nc1ccc2c(c1)CN(C)C(=O)N2` [PFI-1]: the “CD8+ T cell infiltration in the tumor organoids” value in test [1] was “poor T cell infiltration”. The “anti-tumor effect in animal experiments” value with EO771 tumors is “no anti-tumor effect”.
